Our source for the EC50 values is patent US8748415B2 (priority 2011, dated 2014).

pEC50: −log10 of the molar value.

As a reminder, the pEC50 is the EC50 on a negative log10 scale, so that one unit is a factor of ten.

The test system of the assay is recombinant NL4-3 virus (Renilla luciferase in nef, Gag P373S). Briefly: HIV cell culture assay (luciferase activity in MT-2 cells infected with NLRluc recombinant virus). The format is cell-based. The following applies: NL43, MT-2 cells infected 4-5 days with NLRluc recombinant virus, class symbol. In outline: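 Activity was read as luciferase output (Dual Luciferase reagents premixed with lysis solution) after 4–5 days of infection in serially diluted inhibitor. Host cells were MT-2 in 10% FBS RPMI. The reporter virus came from transfected 293T cells and was titered on MT-2.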

On to `C=C(C)[C@@H]1CC[C@]2(CNCCCN3CCCC3=O)CC[C@]3(C)[C@H](CC[C@@H]4[C@@]5(C)CC=C(c6ccc(C(=O)O)cc6F)C(C)(C)[C@@H]5CC[C@]43C)[C@@H]12` [Example 87, 3-fluoro-4-((1R,3aS,5aR,5bR,7aR,11aS,11bR,13aR,13bR)-5a,5b,8,8,11a-pentamethyl-3a-((3-(2-oxopyrrolidin-1-yl)propylamino)methyl)-1-(prop-1-en-2-yl)-2,3,3a,4,5,5a,5b,6,7,7a,8,11,11a,11b,12,13,13a,13b-octadecahydro-1H-cyclopenta[a]chrysen-9-yl)benzoic acid], for which the pEC50 is greater than 7.00.
Take `C=C(C)[C@@H]1CC[C@]2(CNCCCN3CCCC3=O)CC[C@]3(C)[C@H](CC[C@@H]4[C@@]5(C)CC=C(c6ccc(C(=O)O)c(F)c6)C(C)(C)[C@@H]5CC[C@]43C)[C@@H]12` [Example 88, 2-fluoro-4-((1R,3aS,5aR,5bR,7aR,11aS,11bR,13aR,13bR)-5a,5b,8,8,11a-pentamethyl-3a-((3-(2-oxopyrrolidin-1-yl)propylamino)methyl)-1-(prop-1-en-2-yl)-2,3,3a,4,5,5a,5b,6,7,7a,8,11,11a,11b,12,13,13a,13b-octadecahydro-1H-cyclopenta[a]chrysen-9-yl)benzoic acid]: the pEC50 is greater than 7.00.
As for `C=C(C)[C@@H]1CC[C@]2(CNCCC(=O)N3CCCC3)CC[C@]3(C)[C@H](CC[C@@H]4[C@@]5(C)CC=C(c6ccc(C(=O)O)cc6F)C(C)(C)[C@@H]5CC[C@]43C)[C@@H]12` [Example 89, 3-fluoro-4-((1R,3aS,5aR,5bR,7aR,11aS,11bR,13aR,13bR)-5a,5b,8,8,11a-pentamethyl-3a-((3-oxo-3-(pyrrolidin-1-yl)propylamino)methyl)-1-(prop-1-en-2-yl)-2,3,3a,4,5,5a,5b,6,7,7a,8,11,11a,11b,12,13,13a,13b-octadecahydro-1H-cyclopenta[a]chrysen-9-yl)benzoic acid], the pEC50 is greater than 7.00.
As for `C=C(C)[C@@H]1CC[C@]2(CNCCC(=O)N3CCCC3)CC[C@]3(C)[C@H](CC[C@@H]4[C@@]5(C)CC=C(c6ccc(C(=O)O)c(F)c6)C(C)(C)[C@@H]5CC[C@]43C)[C@@H]12` [Example 90, 2-fluoro-4-((1R,3aS,5aR,5bR,7aR,11aS,11bR,13aR,13bR)-5a,5b,8,8,11a-pentamethyl-3a-((3-oxo-3-(pyrrolidin-1-yl)propylamino)methyl)-1-(prop-1-en-2-yl)-2,3,3a,4,5,5a,5b,6,7,7a,8,11,11a,11b,12,13,13a,13b-octadecahydro-1H-cyclopenta[a]chrysen-9-yl)benzoic acid], the negative-log EC50 (pEC50) is greater than 7.00.
As for `C=C(C)[C@@H]1CC[C@]2(CNCCN3CCCC3=O)CC[C@]3(C)[C@H](CC[C@@H]4[C@@]5(C)CC=C(c6ccc(C(=O)O)c(F)c6)C(C)(C)[C@@H]5CC[C@]43C)[C@@H]12` [Example 91, 2-fluoro-4-((1R,3aS,5aR,5bR,7aR,11aS,11bR,13aR,13bR)-5a,5b,8,8,11a-pentamethyl-3a-((2-(2-oxopyrrolidin-1-yl)ethylamino)methyl)-1-(prop-1-en-2-yl)-2,3,3a,4,5,5a,5b,6,7,7a,8,11,11a,11b,12,13,13a,13b-octadecahydro-1H-cyclopenta[a]chrysen-9-yl)benzoic acid], the figure is greater than 7.00; as for `C=C(C)[C@@H]1CC[C@]2(CNCCCN3CCS(=O)(=O)CC3)CC[C@]3(C)[C@H](CC[C@@H]4[C@@]5(C)CC=C(c6ccc(C(=O)O)cc6F)C(C)(C)[C@@H]5CC[C@]43C)[C@@H]12` [Example 92, 4-((1R,3aS,5aR,5bR,7aR,11aS,11bR,13aR,13bR)-3a-(((3-(1,1-dioxido-4-thiomorpholinyl)propyl)amino)methyl)-1-isopropenyl-5a,5b,8,8,11a-pentamethyl-2,3,3a,4,5,5a,5b,6,7,7a,8,11,11a,11b,12,13,13a,13b-octadecahydro-1H-cyclopenta[a]chrysen-9-yl)-3-fluorobenzoic acid], greater than 7.00.
For `C=C(C)[C@@H]1CC[C@]2(CNCCCN3CCS(=O)(=O)CC3)CC[C@]3(C)[C@H](CC[C@@H]4[C@@]5(C)CC=C(c6ccc(C(=O)O)c(F)c6)C(C)(C)[C@@H]5CC[C@]43C)[C@@H]12` [Example 93, 4-((1R,3aS,5aR,5bR,7aR,11aS,11bR,13aR,13bR)-3a-(((3-(1,1-dioxido-4-thiomorpholinyl)propyl)amino)methyl)-1-isopropenyl-5a,5b,8,8,11a-pentamethyl-2,3,3a,4,5,5a,5b,6,7,7a,8,11,11a,11b,12,13,13a,13b-octadecahydro-1H-cyclopenta[a]chrysen-9-yl)-2-fluorobenzoic acid], the pEC50 is greater than 7.00.
On to `C=C(C)[C@@H]1CC[C@]2(CNCCN3CCS(=O)(=O)CC3)CC[C@]3(C)[C@H](CC[C@@H]4[C@@]5(C)CC=C(c6ccc(C(=O)O)cc6F)C(C)(C)[C@@H]5CC[C@]43C)[C@@H]12` [Example 94, 4-((1R,3aS,5aR,5bR,7aR,11aS,11bR,13aR,13bR)-3a-(((2-(1,1-dioxido-4-thiomorpholinyl)ethyl)amino)methyl)-1-isopropenyl-5a,5b,8,8,11a-pentamethyl-2,3,3a,4,5,5a,5b,6,7,7a,8,11,11a,11b,12,13,13a,13b-octadecahydro-1H-cyclopenta[a]chrysen-9-yl)-3-fluorobenzoic acid], for which the pEC50 is greater than 7.00.
As for `C=C(C)[C@@H]1CC[C@]2(CNCCN3CCS(=O)(=O)CC3)CC[C@]3(C)[C@H](CC[C@@H]4[C@@]5(C)CC=C(c6ccc(C(=O)O)c(F)c6)C(C)(C)[C@@H]5CC[C@]43C)[C@@H]12` [Example 95, 4-((1R,3aS,5aR,5bR,7aR,11aS,11bR,13aR,13bR)-3a-(((2-(1,1-dioxido-4-thiomorpholinyl)ethyl)amino)methyl)-1-isopropenyl-5a,5b,8,8,11a-pentamethyl-2,3,3a,4,5,5a,5b,6,7,7a,8,11,11a,11b,12,13,13a,13b-octadecahydro-1H-cyclopenta[a]chrysen-9-yl)-2-fluorobenzoic acid], the figure is greater than 7.00; as for `C=C(C)[C@@H]1CC[C@]2(CNCCC(=O)N3CCCCC3)CC[C@]3(C)[C@H](CC[C@@H]4[C@@]5(C)CC=C(c6ccc(C(=O)O)cc6)C(C)(C)[C@@H]5CC[C@]43C)[C@@H]12` [Example 96, 4-((1R,3aS,5aR,5bR,7aR,11aS,11bR,13aR,13bR)-5a,5b,8,8,11a-pentamethyl-3a-((3-oxo-3-(piperidin-1-yl)propylamino)methyl)-1-(prop-1-en-2-yl)-2,3,3a,4,5,5a,5b,6,7,7a,8,11,11a,11b,12,13,13a,13b-octadecahydro-1H-cyclopenta[a]chrysen-9-yl)benzoic acid], greater than 7.00; as for `C=C(C)[C@@H]1CC[C@]2(CNCCC(=O)N3CCN(S(=O)(=O)N(C)C)CC3)CC[C@]3(C)[C@H](CC[C@@H]4[C@@]5(C)CC=C(c6ccc(C(=O)O)cc6)C(C)(C)[C@@H]5CC[C@]43C)[C@@H]12` [Example 97, 4-((1R,3aS,5aR,5bR,7aR,11aS,11bR,13aR,13bR)-3a-((3-(4-(N,N-dimethylsulfamoyl)piperazin-1-yl)-3-oxopropylamino)methyl)-5a,5b,8,8,11a-pentamethyl-1-(prop-1-en-2-yl)-2,3,3a,4,5,5a,5b,6,7,7a,8,11,11a,11b,12,13,13a,13b-octadecahydro-1H-cyclopenta[a]chrysen-9-yl)benzoic acid], greater than 7.00.
